Test results published in PubChem BioAssay (NCI).
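96-well plates; 48 h exposure; 5 concentrations. Endpoints by linear interpolation between flanking doses. Not reached: highest tested concentration assigned. TGI: total growth inhibition.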

What was measured:
Assay in all cases: growth of human tumour cells (NCI), 48 h
[1] = test system: K-562 leukemia
[2] = test system: HCT-116 colon
[3] = test system: HOP-62 NSCLC
[4] = test system: SR leukemia
[5] = test system: NCI-H23 lung
[6] = test system: RXF 393 renal
[7] = test system: SNB-75 CNS
[8] = test system: 786-0 renal
[9] = test system: HL-60(TB) leukemia
[10] = test system: NCI/ADR-RES ovarian

Row | SMILES | TGI [1] [µM] | TGI [2] [µM] | TGI [3] [µM] | TGI [4] [µM] | TGI [5] [µM] | TGI [6] [µM] | TGI [7] [µM] | TGI [8] [µM] | TGI [9] [µM] | TGI [10] [µM]
1 | CN(C)C(=O)CO/N=C1/C(c2c(O)[nH]c3ccccc23)=Nc2ccccc21 | > 100 | > 100 | > 100 | > 100 | > 100 | 58.6 | 89.8 | > 100 | > 100 | > 100
2 | O=C(O)[C@H]1NC[C@@H]2ON=C(Br)[C@@H]21 | > 100 | > 100 | > 100 | > 100 | > 100 | > 100 | > 100 | > 100 | > 100 | > 100
3 | COc1cc(C(c2cc(OC)c(OC)c(OC)c2)N2C(=O)CCC2C(=O)O)cc(OC)c1OC (stereo not given) | > 100 | > 100 | > 100 | > 100 | > 100 | > 100 | > 100 | > 100 | > 100 | > 100
4 | Cn1c2cc(Cl)ccc2c2ccc3c(c21)C(=O)C=CC3=O | 11.4 | > 53.7 | > 100 | 26.1 | 54.4 | 40 | > 100 | > 55.9 | 45.9 | > 89.7
5 | CC(C(O)c1ccccc1)[N+](=O)[O-] (stereo not given) | 59.1 | > 100 | > 100 | 9.82 | > 100 | 27.7 | > 100 | > 100 | 44.6 | 93.1
6 | CN1CCN(c2ccc3nc(-c4ccc5nc(-c6ccc(N(C)CCCl)cc6)[nH]c5c4)[nH]c3c2)CC1 | 1.16 | 14.4 | 0.645 | 12.5 | 7.4 | 0.501 | 0.897 | 1.11 | > 100 | > 100
7 | OC1NC2CC3NC(O)C(O)NC3CC2NC1O (stereo not given) | > 100 | > 100 | > 100 | > 100 | > 100 | > 100 | > 100 | > 100 | > 100 | > 100
8 | Cc1cc2nc(NS(=O)(=O)c3cc(C)c(Cl)cc3S)[nH]c2cc1C | > 100 | > 100 | > 100 | > 100 | > 100 | > 100 | > 100 | > 100 | > 100 | > 100
9 | O=C(OCc1c(-c2ccccc2)nn(-c2ccccc2)c1COC(=O)Oc1ccccc1)Oc1ccccc1 | > 100 | > 100 | > 100 | > 100 | > 100 | > 100 | > 100 | > 100 | > 100 | > 100
10 | Cc1ccc(-c2nc3n(c2/C=N\N=C(N)N)CCS3)cc1 | 44.2 | 28.5 | 28.6 | > 100 | 30.4 | 29.6 | 23.2 | 29.3 | 78.3 | > 100
11 | CC(Nc1cc(=O)n(C)c(=O)[nH]1)c1ccccc1 (stereo not given) | > 100 | > 100 | > 100 | > 100 | > 100 | > 100 | > 100 | > 100 | > 100 | > 100
12 | COc1ccc(CCNC(=S)/N=C\C2=C(O)c3ccccc3C2=O)cc1OC | > 100 | > 100 | > 100 | > 100 | > 100 | > 100 | > 100 | > 100 | > 100 | > 100
13 | CCC(c1nc2ccccc2c(=O)n1NC(=O)C(C)(C)C)C1(O)CCCCC1 (stereo not given) | > 100 | > 100 | > 100 | > 100 | > 100 | > 100 | > 100 | > 100 | > 100 | > 100
14 | CCOC(=O)c1[nH]n(-c2ccccc2)c(=O)c1C=NC(=S)C(N)=S | > 100 | 44.6 | > 100 | > 100 | > 100 | 65.1 | 91.4 | 38.2 | > 100 | > 100
15 | COC(=O)C(Cc1ccccc1)NC(=O)C(CCCN=C(N)N)NC(=O)OCc1ccccc1 (stereo not given) | > 100 | > 100 | > 100 | > 100 | > 100 | > 100 | > 100 | > 100 | > 100 | > 100
16 | CC1(C)N=C(/C(C#N)=[N+](/[O-])C(=O)c2ccccc2)C(C)(C)N1O | > 100 | > 100 | > 100 | > 100 | > 100 | > 100 | > 100 | > 100 | > 100 | > 100
17 | S=C1NC2=C(COC/C2=C\c2ccccc2Cl)C(c2ccccc2Cl)N1 (stereo not given) | > 100 | 80.6 | > 100 | 20.9 | > 100 | > 100 | > 100 | > 100 | 34.4 | > 100
18 | Cc1cc(NS(=O)(=O)c2ccc(NC(=O)c3cccc4c(NNc5ccc(S(N)(=O)=O)cc5)c5ccccc5nc34)cc2)no1 | > 100 | > 100 | > 100 | 93.2 | > 100 | > 100 | 96.6 | > 100 | 76.5 | > 100
19 | O=C(O)C1(CC(CCCN2CCCCC2)c2ccccc2)CCCC1 (stereo not given) | > 100 | > 100 | > 100 | > 100 | > 100 | > 100 | > 100 | > 100 | > 100 | > 100
20 | CC(C)(CO)NC(=O)c1cccc(C(=O)NC(C)(C)CO)c1Br | > 100 | > 100 | > 100 | > 100 | > 100 | > 100 | > 100 | > 100 | > 100 | > 100
21 | COc1cc(C(=O)OC2CC(C)=CC[C@@]3(C)CC[C@](O)(C(C)C)C23)ccc1O (stereo not given in full) | 38.3 | 33.1 | 32.4 | 84.1 | 32.6 | 35.4 | 33.5 | 31.3 | > 100 | 37.6
